The results in this text go back to patent publication US9839642B2, “Beta-tetrazolyl-propionic acids as metallo-beta-lactamase inhibitors” (priority 2014, dated 2017).

By pIC50 is commonly meant the IC50 on a negative log10 scale, so that one unit is a factor of ten.

One assay has as its target IMP-1 (Serratia marcescens, UniProt P52699). The assay is described as follows: Enzyme activity: determination of IC50, fluorescence assay with CCF2-FA substrate. Conditions: enzyme 2 pM, CCF2-FA 1.25 μM, 2 hours at 25° C.; read-out: IMP1 IC50. The class given is biochemical. In outline: (§1)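 100 mM KH2PO4 pH 7 + 0.005% Tween-20 + 10 μM ZnSO4; CCF2-FA 1.25 μM; NDM-1 1 pM, IMP-1 2 pM, VIM-1 30 pM; cpd 20–0.00063 μM final, DMSO 1:50. 2 h, 25° C. Ex 405/em 460 nm; IC50, 4-param fit.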

For another assay, the target named is NDM-1 (Klebsiella pneumoniae, UniProt C7C422). Described as above. It is filed as biochemical. Conditions: enzyme 1 pM, CCF2-FA 1.25 μM, 2 hours at 25° C.; read-out: NDM1 IC50. Summed up: as §1
The next assay deals with VIM-1 (Pseudomonas aeruginosa, UniProt A0A0F7KYQ8). Described as above. Conditions: enzyme 30 pM, CCF2-FA 1.25 μM, 2 hours at 25° C.; read-out: VIM1 IC50. It is filed as biochemical. Summed up:
as §1

The test system of assay [1] is Escherichia coli expressing NDM-1 (CLB30016). The assay is described as follows: Antibiotic potentiation activity: synergistic concentration (MITC95) with imipenem, growth by OD600. The class given is cell-based. Conditions: 95% inhibition of bacterial growth, strain CLB30016. Summed up:
(§2)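 MITC95 = lowest inhibitor concentration giving 95% growth inhibition, read by absorbance after 22–24 h at 35° C. Compound range 200 μM to 0.195 μM, imipenem fixed at 1 or 4 μg/ml, bacteria in 1.1×CAMHB from saline suspension diluted 1:100.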

Assay [2] has as its system Serratia marcescens expressing IMP-1 (CL5741). The assay is described as above. It is filed as cell-based. The conditions noted are these: 95% inhibition of bacterial growth, strain CL5741. Summed up:
as §2

In assay [3] the test system is Klebsiella pneumoniae expressing VIM-1 (IHMA599644). Described as above. The class given is cell-based. The conditions noted are these: 95% inhibition of bacterial growth, strain IHMA599644. In outline:
as §2

pIC50: −log10 of the molar value. A value given as a limit tells only on which side of the number the result lay.

Chain of IMP-1 (P52699 19-246, looked up, species assumed): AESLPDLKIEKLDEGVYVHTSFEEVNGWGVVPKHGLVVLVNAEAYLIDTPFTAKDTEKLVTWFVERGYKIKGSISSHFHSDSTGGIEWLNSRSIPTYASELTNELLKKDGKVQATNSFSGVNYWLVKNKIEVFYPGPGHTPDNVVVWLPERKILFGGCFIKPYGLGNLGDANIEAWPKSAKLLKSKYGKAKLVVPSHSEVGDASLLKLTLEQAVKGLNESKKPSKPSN
Chain of NDM-1 (C7C422 29-270, looked up, species assumed): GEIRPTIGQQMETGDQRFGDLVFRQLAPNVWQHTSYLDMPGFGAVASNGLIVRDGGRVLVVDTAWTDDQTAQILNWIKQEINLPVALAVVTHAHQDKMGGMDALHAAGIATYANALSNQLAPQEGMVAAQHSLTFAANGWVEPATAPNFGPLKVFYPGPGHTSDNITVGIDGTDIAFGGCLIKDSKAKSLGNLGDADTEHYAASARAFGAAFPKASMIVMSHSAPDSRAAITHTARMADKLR

With `CC(C)[C@H](C(=O)O)[C@H](Cc1ccc(Br)nc1)c1nnn[nH]1` [Example 91, (2S,3S)-4-(6-bromopyridin-3-yl)-2-isopropyl-3-(1H-tetrazol-5-yl)butanoic acid], the values for the pIC50 on IMP-1, at NDM-1 and at VIM-1 were 5.66, 7.49 and 8.10, respectively. Besides, in assay [1], the “NDM1 EC30016 MITC95” value turned out to be 7.8 µM. Further, in assay [2], the “IMP1 SM5741 MITC95” value is 50 µM. In addition, in assay [3], the “VIM1 KP599644 MITC95” value was 12.5 µM.

In the case of `CC(C)[C@H](C(=O)O)[C@H](Cc1cccc(Br)n1)c1nnn[nH]1` [Example 92], the pIC50 is 5.26 on IMP-1, 6.96 on NDM-1 and 7.55 at VIM-1. Moreover, in assay [1], the “NDM1 EC30016 MITC95” value is 9.4 µM. The “IMP1 SM5741 MITC95” value in assay [2] worked out at 100 µM. Further, the “VIM1 KP599644 MITC95” value in assay [3] turned out to be 25 µM.

Turning to `CCC[C@H](C(=O)O)[C@H](Cc1ccc(C(N)=O)cn1)c1nnn[nH]1` [Example 93, (S)-2-((S)-2-(5-carbamoylpyridin-2-yl)-1-(1H-tetrazol-5-yl)ethyl) pentanoic acid], the pIC50 is below 4.70 on IMP-1, 6.24 on NDM-1 and 7.05 at VIM-1. Further, the “NDM1 EC30016 MITC95” value in assay [1] was found to be 6.2 µM. For the same compound, the “IMP1 SM5741 MITC95” value in assay [2] was above 200 µM. Also, in assay [3], the “VIM1 KP599644 MITC95” value was determined as 25 µM.

For the compound `CCC[C@H](C(=O)O)[C@H](Cc1cccc(C(=O)O)n1)c1nnn[nH]1` [Example 94, 6-((2S,3)-3-carboxy-2-(1H-tetrazol-5-yl)hexyl)picolinic acid], the pIC50 on IMP-1 was below 4.70; on NDM-1 it was 5.35; at VIM-1 it was 5.54. Further, the “NDM1 EC30016 MITC95” value in assay [1] was found to be 50 µM. In assay [2], the “IMP1 SM5741 MITC95” value is above 200 µM. In assay [3], the “VIM1 KP599644 MITC95” value turned out to be 200 µM.

Take `CCC[C@H](C(=O)O)[C@H](Cc1ccc(-c2ccc(CN)cc2)nc1)c1nnn[nH]1` [Example 96, (4-(5-((2S,3S)-3-carboxy-2-(1H-tetrazol-5-yl)hexyl)pyridin-2-yl)phenyl)methanaminium]: the pIC50 on IMP-1 was 5.51; at NDM-1, 6.55; on VIM-1, 8.05. The “NDM1 EC30016 MITC95” value in assay [1] is 6.2 µM. In addition, the “IMP1 SM5741 MITC95” value in assay [2] amounted to 37 µM. For the same compound, the “VIM1 KP599644 MITC95” value in assay [3] was determined as 18.8 µM.

Regarding `CCC[C@H](C(=O)O)[C@H](Cc1ccc(-c2ccc(-c3nn[nH]n3)cc2)nc1)c1nn[nH]n1` [Example 97, (S)-2-((S)-2-(6-(4-(2H-tetrazol-5-yl)phenyl)pyridin-3-yl)-1-(1H-tetrazol-5-yl)ethyl)pentanoic acid], the negative logarithm of the IC50 (pIC50) is 6.42 at IMP-1, 8.92 at NDM-1 and 8.23 at VIM-1. For the same compound, the “NDM1 EC30016 MITC95” value in assay [1] worked out at 100 µM. In addition, in assay [2], the “IMP1 SM5741 MITC95” value was found to be 31 µM. For the same compound, in assay [3], the “VIM1 KP599644 MITC95” value was 200 µM.

On to `CC(C)C[C@H](C(=O)O)[C@H](Cc1ccc(-c2ccc3c(c2)CNC3)cn1)c1nnn[nH]1` [Example 99, (S)-2-((S)-2-(5-(isoindolin-5-yl)pyridin-2-yl)-1-(1H-tetrazol-5-yl)ethyl)-4-methylpentanoic acid], for which the pIC50 was 5.41 at IMP-1, 6.22 on NDM-1 and 6.46 on VIM-1. For the same compound, the “NDM1 EC30016 MITC95” value in assay [1] is 31 µM. In addition, the “IMP1 SM5741 MITC95” value in assay [2] was 75 µM. For the same compound, the “VIM1 KP599644 MITC95” value in assay [3] amounted to 100 µM.

In the case of `CC(C)C[C@H](C(=O)O)[C@H](Cc1ccc(C2CCNC2)nc1)c1nnn[nH]1` (stereo partly drawn) [Example 100, (2S)-4-methyl-2-((1S)-2-(6-(pyrrolidin-3-yl)pyridin-3-yl)-1-(1H-tetrazol-5-yl)ethyl)pentanoic acid], the pIC50 at IMP-1 is 5.54; at NDM-1, 6.55; on VIM-1, 8.31. Also, in assay [1], the “NDM1 EC30016 MITC95” value is 6.2 µM. Moreover, in assay [2], the “IMP1 SM5741 MITC95” value was determined as 25 µM. Moreover, the “VIM1 KP599644 MITC95” value in assay [3] was 12.5 µM.

Consider `CC(C)C[C@H](C(=O)O)[C@H](Cc1ccc(C2CCNCC2)cn1)c1nnn[nH]1` [Example 101, (S)-4-methyl-2-((S)-2-(5-(piperidin-4-yl)pyridin-2-yl)-1-(1H-tetrazol-5-yl)ethyl)pentanoic acid], for which the pIC50 on IMP-1 was 5.70; at NDM-1 it was 6.89; on VIM-1 it was 7.89. Further, the “NDM1 EC30016 MITC95” value in assay [1] is 1.6 µM. Also, the “IMP1 SM5741 MITC95” value in assay [2] came out at 18.8 µM. The “VIM1 KP599644 MITC95” value in assay [3] was 18.8 µM.

On to `CC(C)C[C@H](C(=O)O)[C@H](Cc1ccc(C2CCNCC2)cc1)c1nnn[nH]1` [Example 102, (S)-4-methyl-2-((S)-2-(4-(piperidin-4-yl)phenyl)-1-(1H-tetrazol-5-yl)ethyl)pentanoic acid], for which the pIC50 is 7.14 at IMP-1, 7.40 on NDM-1 and 8.28 at VIM-1. For the same compound, the “NDM1 EC30016 MITC95” value in assay [1] was 12.5 µM. Also, the “IMP1 SM5741 MITC95” value in assay [2] is 2.3 µM. Also, the “VIM1 KP599644 MITC95” value in assay [3] was 37 µM.

Consider `CC(C)C[C@H](C(=O)O)[C@H](Cc1ccc(C2CCNCC2)nc1)c1nnn[nH]1` [Example 103, (S)-4-methyl-2-((S)-2-(6-(piperidin-4-yl)pyridin-3-yl)-1-(1H-tetrazol-5-yl)ethyl)pentanoic acid], for which the negative logarithm of the IC50 (pIC50) is 6.02 at IMP-1, 6.82 on NDM-1 and 8.47 on VIM-1. Further, the “NDM1 EC30016 MITC95” value in assay [1] is 6.2 µM. Further, in assay [2], the “IMP1 SM5741 MITC95” value is 18.8 µM. The “VIM1 KP599644 MITC95” value in assay [3] turned out to be 18.8 µM.

Take `CC(C)[C@H](C(=O)O)[C@H](Cc1ccc(C2CCNCC2)nc1)c1nnn[nH]1` [Example 104, (2S,3S)-2-isopropyl-4-(6-(piperidin-4-yl)pyridin-3-yl)-3-(1H-tetrazol-5-yl)butanoic acid]: the pIC50 was 5.15 on IMP-1, 6.74 on NDM-1 and 7.85 at VIM-1. The “NDM1 EC30016 MITC95” value in assay [1] amounted to 3.1 µM. Further, the “IMP1 SM5741 MITC95” value in assay [2] worked out at 37 µM. Moreover, in assay [3], the “VIM1 KP599644 MITC95” value was found to be 18.8 µM.

In the case of `CC(C)[C@H](C(=O)O)[C@H](Cc1ccc(C2CCNC2)nc1)c1nnn[nH]1` (stereo partly drawn) [Example 105, (2S,3S)-2-isopropyl-4-(6-(pyrrolidin-3-yl)pyridin-3-yl)-3-(1H-tetrazol-5-yl)butanoic acid], the results for the pIC50 on IMP-1, on NDM-1 and at VIM-1 were 4.85, 6.77 and 7.70, respectively. For the same compound, the “NDM1 EC30016 MITC95” value in assay [1] was 3.1 µM. Moreover, the “IMP1 SM5741 MITC95” value in assay [2] was found to be 50 µM. In addition, the “VIM1 KP599644 MITC95” value in assay [3] was 12.5 µM.

For `O=C(O)[C@@H](C1CCOC1)[C@H](Cc1ccc(C2CCNC2)cc1)c1nnn[nH]1` (stereo partly drawn) [Example 107, (2R,3S)-4-(4-(pyrrolidin-3-yl)phenyl)-2-(tetrahydrofuran-3-yl)-3-(1H-tetrazol-5-yl)butanoic acid], the pIC50 at IMP-1 is 5.23; on NDM-1 it was 6.42; on VIM-1, 7.52. Also, the “NDM1 EC30016 MITC95” value in assay [1] was 9.4 µM. In addition, the “IMP1 SM5741 MITC95” value in assay [2] came to 50 µM. In assay [3], the “VIM1 KP599644 MITC95” value came out at 12.5 µM.

For `CC(C)[C@H](C(=O)O)[C@H](Cc1csc(C2CCNC2)n1)c1nnn[nH]1` (stereo partly drawn) [Example 108, (2S,3S)-2-isopropyl-4-(2-(pyrrolidin-3-yl)thiazol-4-yl)-3-(1H-tetrazol-5-yl)butanoic acid], the values for the pIC50 on IMP-1, at NDM-1 and at VIM-1 were below 4.70, 5.55 and 6.12, respectively. Further, in assay [1], the “NDM1 EC30016 MITC95” value amounted to 12.5 µM. In addition, the “IMP1 SM5741 MITC95” value in assay [2] is above 200 µM. Also, the “VIM1 KP599644 MITC95” value in assay [3] amounted to 37 µM.

`CC(C)[C@H](C(=O)O)[C@H](Cc1ccc(C2CCNC2)c(F)c1)c1nnn[nH]1` (stereo partly drawn) [Example 109, (2S,3S)-4-(3-fluoro-4-(pyrrolidin-3-yl)phenyl)-2-isopropyl 3-(1H-tetrazol-5-yl)butanoic acid]: the pIC50 on IMP-1 was 6.35; at NDM-1, 7.77; on VIM-1, 8.92. Further, the “NDM1 EC30016 MITC95” value in assay [1] was 3.1 µM. The “IMP1 SM5741 MITC95” value in assay [2] turned out to be 12.5 µM. The “VIM1 KP599644 MITC95” value in assay [3] came to 4.7 µM.

As to `Cc1cc(C[C@H](c2nnn[nH]2)[C@@H](C(=O)O)C(C)C)ccc1C1CCNC1` (stereo partly drawn) [Example 110, (2S,3S)-2-isopropyl-4-(3-methyl-4-(pyrrolidin-3-yl)phenyl)-3-(1H-tetrazol-5-yl)butanoic acid], the values for the pIC50 at IMP-1, on NDM-1 and on VIM-1 were 5.85, 7.62 and 8.36, respectively. Moreover, the “NDM1 EC30016 MITC95” value in assay [1] was 4.7 µM. In addition, the “IMP1 SM5741 MITC95” value in assay [2] came to 18.8 µM. Also, the “VIM1 KP599644 MITC95” value in assay [3] came out at 6.2 µM.

Take `CCC[C@H](C(=O)O)[C@H](Cc1ccc(N)cn1)c1nnn[nH]1` [Example 111, (S)-2-((S)-2-(5-aminopyridin-2-yl)-1-(1H-tetrazol-5-yl)ethyl)pentanoic acid]: the values for the negative logarithm of the IC50 (pIC50) at IMP-1, on NDM-1 and at VIM-1 were 5.11, 6.64 and 7.11, respectively. In addition, the “NDM1 EC30016 MITC95” value in assay [1] was 0.49 µM. Also, the “IMP1 SM5741 MITC95” value in assay [2] is 44 µM. In addition, the “VIM1 KP599644 MITC95” value in assay [3] amounted to 5.5 µM.
